Data from article PMC4186430, “Modeling of age-dependent amyloid accumulation and γ-secretase inhibition of soluble and insoluble Aβ in a transgenic mouse model of amyloid deposition” (Pharmacology Research & Perspectives, 2013).

What was measured:
[1] = Fraction unbound in brain, rat brain slice uptake method; format: in vitro ADME, Sprague-Dawley rats; details: male, Sprague-Dawley, brain slices (coronal slices of striatal areas, 300 μm), observed, 1 μmol/L compound, 37°C, read-out: fu,br (brain unbound fraction)
Procedure: Determination of the fraction of compound unbound in the brain was determined in a rat brain slice uptake method (Fridén et al. [2009]; Borgegård et al. [2011]). In short, male Sprague-Dawley rats were decapitated under isoflurane anesthesia. The brains were immersed in an ice-cold oxygenated extracellular fluid (ECF) buffer. Coronal slices of the striatal areas (300 μm) were preincubated in a 10 mL ECF buffer for 5 min at 37°C followed by incubation with 1 μmol/L compound in an ECF buffer for 5 h at 37°C under 5% CO2 in oxygen. After incubation, brain slices were weighed and homogenized in nine volumes (w/v) of ECF buffer. The slice homogenates and ECF buffer were stored at −20°C prior to analysis. To 50 μL homogenized tissue, 150 μL ice-cold acetonitrile containing an internal standard was added in a precipitation plate. After mixing and centrifugation (4°C, 4000 rpm, 20 min), supernatant was transferred to the analysis plate and analyzed by LC/MS/MS.

soluble Aβ40 production = test: PKPD turnover model of MRK-560 inhibition of soluble Aβ40 production (models A, B, C); format: in vivo, Tg2576 transgenic mice; details: for IC50: Mus musculus
Procedure: In a second step, drug effect data were added to the AP analysis in order to develop an integrated PKPD model that incorporated both age-dependent AP and an age-dependent drug effect. To this end, the initially developed logistic model (eq. 3) was combined with a turnover model (Dayneka et al. [1993]; Jusko and Ko [1994]). This part of the analysis was only performed for soluble and insoluble Aβ40, as drug effect data for Aβ42 were not available from all studies. In this approach, the age-dependent AP causing an increase in soluble Aβ40 production (Kin,sol) was described following equations (4 and 5): [drawing 4] (4) [drawing 5] (5) in which Kin,sol and kout,sol corresponded to the production and loss of soluble Aβ40, respectively.
The inhibitory effect of MRK-560 on soluble Aβ40 was modeled using a turnover model (eq. 4), where the production of soluble Aβ40 was inhibited by the drug concentration. The model took into account the time delay between changes in plasma concentration of the drug and changes insoluble Aβ40 levels. Three types of drug effect models were evaluated: (A) absolute (eq. 6), (B) relative change from the baseline (eq. 7), and (C) modified relative change from the baseline (eq. 7). In model B the IC50(solAβ40) was constant, while in model C it was dependent on the soluble Aβ40 levels via a linear function as shown in equation (8).
Kin,sol corresponded to the age-dependent production of soluble Aβ40, kout,sol corresponded to the loss of soluble Aβ40, Imax was a maximum drug-induced soluble Aβ40 reduction (either absolute or relative reduction from the baseline for eqs. 6 and 7, respectively), CBr represented the brain concentrations, IC50 was a concentration which induced half of the maximum inhibition, while AP corresponded to the AP, described using equation (3). Additionally, parameter SL represented a slope of the linear relationship between absolute Aβ40 levels and IC50.
Changes in soluble Aβ40 were assumed to change the production of insoluble Aβ40. This effect was modeled using a turnover model and was described using equations (9–11): [drawing 9] (9) [drawing 10] (10) [drawing 11] (11) where Kin,insol was the production of insoluble Aβ40, which was dependent on the soluble Aβ40 levels, kout,insol was the loss of insoluble Aβ40, and SCALE was the scaling function between soluble and insoluble Aβ40 levels. Similar as in equation (3), α2 from equation (11) was the upper asymptote in the logistic function, ECi2 was a point of inflection and P2 was the slope parameter. A graphical representation of the PKPD model can be found in Figure 1.
All modeling analyses were performed in NONMEM (version 7.1.0, ICON Development Solutions, Ellicott City, MD [Schoemaker and Cohen [1996]]). The best models were chosen based on the analysis of their objective function, the precision of parameter estimates, and goodness-of-fit plots. The analysis of NONMEM output was performed using R software (R Development Core Team [2008]) and Xpose4 package (Jonsson and Karlsson [1998]). The 90% prediction intervals were calculated using the visual predictive check (VPC) as described by (Post et al. [2008]). In brief, 1000 simulations of the data were performed using final parameter estimates and 5th, 50th, and 95th percentiles were calculated.

[2] = model A (absolute drug effect), estimate (SE%)

fraction unbound at 5 h, 1 μmol/L [1]: 0.0067
IC50 (soluble Aβ40 production; [2]): 90 nM
IC50 (soluble Aβ40 production; model B (relative drug effect, constant IC50), estimate (SE%)): 190 nM
IC50 (soluble Aβ40 production; model C, 5-month-old Tg2576 mice, brain concentration): 110 nM
IC50 (soluble Aβ40 production; model C, 25-month-old Tg2576 mice, brain concentration): 12000 nM
SMILES: O=S(=O)(NC1CCC(c2cc(F)ccc2F)(S(=O)(=O)c2ccc(Cl)cc2)CC1)C(F)(F)F (stereo not drawn) [MRK-560, N-[cis-4-[(4-chlorophenyl)-sulfonyl]-4-(2,5-difluorophenyl)cyclohexyl]-1,1,1-trifluoromethanesulfonamide]
Imax (soluble Aβ40 production; final model (model C)): 86%
Imax (soluble Aβ40 production; [2]): 59 (4) pg/mg
Imax (soluble Aβ40 production; model B (relative drug effect), estimate (SE%)): 88 (10) %
